Patent EP2401611B1, “IMPROVED METHODS FOR IDENTIFICATION” (Cambridge Enterprise Limited, priority 2009, dated 2010)

System: TNF-alpha
Assay: Sub-lethal endotoxemia model (LPS challenge, serum TNF-alpha)
Format: in vivo, mouse
Details: very high / highest doses
Method: We selected the sub-lethal endotoxemia model in mouse, because this has been well characterised in our laboratory (see for example Fox et al. (2002) J. Med. Chem. 45:360-70; Fox et al. (2005) J. Med. Chem. 48:867-74). The extent of systemic inflammation in response to a single intraperitoneal injection of bacterial lipopolysaccharide (LPS) can be estimated by measuring serum TNF-alpha 2 hours post challenge.
Methods: Mice (CD1 strain; adult males; 6 per group) were treated with BSCI (in an appropriate vehicle) or with vehicle alone by an appropriate route. […] Simultaneously, one set of mice at each BSCI concentration received BIM 23627 at 4mg/animal (120mg/kg) by sub-cutaneous injection (a treatment condition known to suppress classical sstr2-mediated signalling, such as GH release, in rats; Tulipano et al. (2002) 143:1218-24). Between 30mins and 1hour after dosing (a period when a maximal plasma concentration of BSCI has been achieved), the inflammatory challenge was elicited by intraperitoneal injection of 750µg of LPS (Sigma; L4130 lot#024K4077; 900,000 EU/mg).
After a further 2 hours, the animals were sacrificed by CO2 asphyxiation, and blood was drawn by cardiac puncture. Serum was prepared by conventional methods, and the level of TNF-alpha in serum was measured using an ELISA (R&D Systems; Murine Quantikine code# MTA00) performed in accordance with the manufacturer's instructions.

C[C@@H]1C[C@H]2[C@@H]3CCC4=CC(=O)C=C[C@]4(C)[C@@]3(F)[C@@H](O)C[C@]2(C)[C@@]1(O)C(=O)CO [dexamethasone]
inhibition of TNF-alpha: more than 90%
